In patent US7160911B2, “Diarylcycloalkyl derivatives, process for their preparation and their use as pharmaceuticals” (Sanofi-Aventis Deutschland GmbH, priority 2003, dated 2007):

Each compound was assayed against T1, human PPARalpha (Homo sapiens, UniProt Q07869) (assay: Cellular PPARalpha assay (stably transfected HEK luciferase reporter cell line)). Details: PPARalpha reporter cell line (HEK, GR-GAL4-humanPPARalpha-LBD).
T1 construct: amino acids S167–Y468; expressed in transfected cells; host or cells: HEK (human embryo kidney) cells, stably transfected with the pcDNA3 construct
T1 sequence (Q07869 167-468): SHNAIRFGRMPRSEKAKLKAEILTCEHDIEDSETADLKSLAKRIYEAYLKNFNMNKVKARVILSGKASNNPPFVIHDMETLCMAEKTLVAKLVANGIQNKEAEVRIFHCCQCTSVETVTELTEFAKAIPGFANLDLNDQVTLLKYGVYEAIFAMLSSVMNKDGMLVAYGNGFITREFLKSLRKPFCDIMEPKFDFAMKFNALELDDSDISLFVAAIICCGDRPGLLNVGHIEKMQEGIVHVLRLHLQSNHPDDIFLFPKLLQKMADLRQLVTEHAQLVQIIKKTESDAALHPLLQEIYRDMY
Assay type: cell-based
Description: Determination of EC50 Values of PPAR Agonists in the Cellular PPARalpha Assay
The potency of substances which bind to human PPARalpha and activate in an agonistic manner is analyzed using a stably transfected HEK cell line (HEK=human embryo kidney) which is referred to here as PPARalpha reporter cell line. It contains two genetic elements, a luciferase reporter element (pdeltaM-GAL4-Luc-Zeo) and a PPARalpha fusion protein (GR-GAL4-humanPPARalpha-LBD) which mediates expression of the luciferase reporter element depending on a PPARalpha ligand. The stably and constitutively expressed fusion protein GR-GAL4-humanPPARalpha-LBD binds in the cell nucleus of the PPARalpha reporter cell line via the GAL4 protein portion to the GAL4 DNA binding motifs 5′-upstream of the luciferase reporter element which is integrated in the genome of the cell line.
There is only little expression of the luciferase reporter gene without addition of a PPARalpha ligand if fatty acid-depleted fetal calf serum (cs-FCS) is used in the assay. PPARalpha ligands bind and activate the PPARalpha fusion protein and thereby bring about expression of the luciferase reporter gene. The luciferase which is formed can be detected by means of chemiluminescence via an appropriate substrate.
The PPARalpha reporter cell line was prepared in 2 stages. Firstly, the luciferase reporter element was constructed and stably transfected into HEK cells. For this purpose, five binding sites of the yeast transcription factor GAL4 (each 5′-CGGAGTACTGTCCTCCGAG-3′) (SEQ ID No. 1) were cloned in 5′-upstream of a 68 bp-long minimal MMTV promoter (Genbank Accession # V01175). The minimal MMTV promoter section contains a […] and a TATA element in order to enable efficient transcription by RNA polymerase II. The cloning and sequencing of the GAL4-MMTV construct took place in analogy to the description of Sambrook J. et. al. (Molecular cloning, Cold Spring Harbor Laboratory Press, 1989). Then the complete Photinus pyralis gene (Genbank Accession # M15077) was cloned in 3′-downstream of the GAL4-MMTV element. After sequencing, the luceriferase reporter element consisting of five GAL4 binding sites, MMTV promoter and luciferase gene was recloned into a plasmid which confers zeocin resistance in order to obtain the plasmid pdeltaM-GAL4-Luc-Zeo. This vector was transfected into HEK cells in accordance with the statements in Ausubel, F. M. et al. (Current protocols in molecular biology, Vol. 1–3, John Wiley & Sons, Inc., 1995).
In a second step, the PPARalpha fusion protein (GR-GAL4-humanPPARalpha-LBD) was introduced into the stable cell clone described. For this purpose, initially the cDNA coding for the N-terminal 76 amino acids of the glucocorticoid receptor (Genbank Accession # P04150) was linked to the cDNA section coding for amino acids 1–147 of the yeast transcription factor GAL4 (Genbank Accession # P04386). The cDNA of the ligand-binding domain of the human PPARalpha receptor (amino acids S167–Y468; Genbank Accession # S74349) was cloned in at the 3′-end of this GR-GAL4 construct. The fusion construct prepared in this way (GR-GAL4-humanPPARalpha-LBD) was recloned into the plasmid pcDNA3 (from Invitrogen) in order to enable constitutive expression therein by the cytomegalovirus promoter. This plasmid was linearized with a restriction endonuclease and stably transfected into the previously described cell clone containing the luciferase reporter element. The finished PPARalpha reporter cell line which contains a luciferase reporter element and constitutively expresses the PPARalpha fusion protein (GR-GAL4-human PPARalpha-LBD) was isolated by selection with zeocin (0.5 mg/ml) and G418 (0.5 mg/ml).
The activity of PPARalpha agonists is determined in a 3-day assay which is described below: […]

**Q.** `Cc1cccc(CO[C@@H]2CCC[C@H](OCc3nc(-c4ccc5ccccc5c4)oc3C)C2)c1C(=O)O` [Example 1, 2-methyl-6-[(1R,3S)3-(5-methyl-2-naphthalen-2-yloxazol-4-yl-methoxy)cyclohexyloxymethyl]benzoic acid] was tested. Which EC50 did it give?
**A.** Its EC50 is 0.2 nM.

**Q.** Which EC50 does the source give for `Cc1cccc(CO[C@@H]2CCC[C@H](OCc3nc(-c4ccc5c(c4)OCCO5)oc3C)C2)c1C(=O)O` [Example 3] here?
**A.** Its EC50 is 0.2 nM.

**Q.** For `Cc1ccc(-c2nc(CO[C@H]3CCC[C@@H](OCc4cccc(C)c4C(=O)O)C3)c(C)o2)o1` [Example 4, 2-methyl-6-{(1R,3S)-3-[5-methyl-2-(5-methylfuran-2-yl)oxazol-4-ylmethoxy]cyclohexyloxy-methyl}benzoic acid], which EC50 is on record?
**A.** The EC50 was 0.6 nM.

**Q.** `COCCOc1cc(-c2nc(CO[C@H]3CCC[C@@H](OCc4cccc(C)c4C(=O)O)C3)c(C)o2)cc(C(F)(F)F)c1` [Example 10] was tested. Which EC50 did it give?
**A.** Its EC50 is 0.3 nM.

**Q.** For `Cc1ccc(-c2nc(CO[C@H]3CCC[C@@H](OCc4cccc(C)c4C(=O)O)C3)c(-c3ccccc3)o2)cc1` [Example 11, 2-methyl-6-[(1R,3S)-3-(5-phenyl-2-p-tolyloxazol-4-ylmethoxy)cyclohexyloxy-methyl]benzoic acid], which EC50 is on record?
**A.** Its EC50 is 27 nM.

**Q.** How did the EC50 turn out when `COc1cccc(-c2nc(CO[C@H]3CCC[C@@H](OCc4cccc(C)c4C(=O)O)C3)c(-c3ccccc3)o2)c1` [Example 12, 2-{(1R,3S)-3-[2-(3-methoxyphenyl)-5-phenyloxazol-4-ylmethoxy]cyclohexyloxy-methyl}-6-methylbenzoic acid] was run?
**A.** The EC50 was 34 nM.

**Q.** How did the EC50 turn out when `Cc1cccc(CO[C@@H]2CCC[C@H](OCc3coc(C4CCCCC4)n3)C2)c1C(=O)O` [Example 13, 2-[(1R,3S)-3-(2-cyclohexyloxazol-4-ylmethoxy)cyclohexyloxymethyl]-6-methylbenzoic acid] was run?
**A.** The EC50 was 0.06 nM.
